Marks after values point to notes of the source that are not given here.
Experiments:
[1] = tested on: southern corn rootworm (SCR) adults; experiment: Sticky trap attraction in corn, estragole analogues (Example 3); format: in vivo, Diabrotica undecimpunctata howardi; conditions: September 11; 100 mg per trap; n = 4
Outline: (§1)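 Cotton wicks dosed with 100 mg or 100 μL attractant per trap on TangleTrap-coated cartons, four replicates 10 m apart on 1 m posts at field edges of hybrid or sweet corn. Mean beetles caught after ~24 h; log-transformed ANOVA with Duncan's test, P=0.05.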

[2] = tested on: western corn rootworm (WCR) adults; experiment: Sticky trap attraction in corn, estragole analogues (Example 3); format: in vivo, Diabrotica virgifera virgifera; conditions: 100 mg per trap
Outline: as §1

[3] = tested on: D. u. howardi adults; format: in vivo, Diabrotica undecimpunctata howardi; conditions: TEX×PEP bait with 0.1% methomyl alone or with 1% veratrole added
From the text: A noncucurbit carrier, 10-mesh corn grits (71% of which passed through a 2-mm screen), was obtained from Illinois Cereal Mills, Paris, Ill. (designated as pesticide carrier grits, 980). This carrier was impregnated with different levels of cucurbitacins by addition of varying amounts of a chloroform extract of AND×MAX fruit containing 0.12% cucurbitacins B and D (Metcalf, et al., Proc. Natl. Acad. Sci. USA, 77:3769-3772 (1980), Metcalf, et al., Environ. Entomol., 11:921-927 (1982)). The cucurbitacin-containing areas were scraped from plates, extracted in anhydrous methanol, centrifuged, and the UV absorption at 210 nm determined by UV spectrophotometry. Content of cucurbitacins was quantified from standard curves of pure cucurbitacins B, D, E and I, and E-glycoside (Metcalf, et al., Proc. Natl. Acad. Sci. USA, 77:3769-3772 (1980), Metcalf, et al., Environ. Entomol., 11:921-927 (1982)).
The various dried, ground, and insecticide-treated baits were given preliminary field evaluation by placing uniform amounts in petri-dish halves (150-mm diameter) that were placed at random on the ground in cucurbit and corn rows heavily infested ith SCR, WCR, and SCB adults. Ten dishes were used for each treatment; the maximum dosage of dried baits used was 300 mg per dish, equivalent to […]. Mortality counts of adult beetles in the dishes were made after 20-40 h.

[4] = tested on: western corn rootworm (WCR) adults; experiment: Sticky trap attraction in sweet corn plots (Example 1); format: in vivo, Diabrotica virgifera virgifera; conditions: for Mean number of WCR per trap (±standard deviation): n = 4; for relative percent activity of the mean WCR trap catch as compared with the highest mean value in the column: mixture 20 mg each component
Outline: (§2)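 Field trapping in sweet-corn plots beside a Blue Hubbard squash trap crop; lures on mineral-oil-impregnated cotton wicks atop sticky paper-carton traps on 1-m posts, 4 replicates in randomized complete blocks. Beetles counted after 24 h; VIPAE/VIP/TIC mixtures and single components at 1–300 mg per trap, ANOVA/Duncan at P=0.05.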

[5] = tested on: southern corn rootworm (SCR) adults; experiment: as above; format: in vivo, Diabrotica undecimpunctata howardi; conditions: for Mean number of SCR per trap (±standard deviation): n = 4; for relative percent activity of the mean SCR trap catch as compared with the highest mean value in the column: mixture 20 mg each component
Outline: as §2

[6] = tested on: SCR; experiment: Limit of response rating of squash blossom volatiles on sticky traps (Example 5); format: in vivo, Diabrotica undecimpunctata howardi; conditions: 24 hour; four replicate traps; 0.01 mg to 200 mg
Outline: (§3)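 Adult Diabrotica beetles were tested against cylindrical sticky traps baited with cotton wicks holding 0.01 mg to 200 mg of individual Cucurbita maxima blossom volatiles. Response limit rated by trap catch.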

[7] = tested on: NCR; experiment: as above; format: in vivo, Diabrotica barberi; conditions: 24 hour; four replicate traps; 0.01 mg to 200 mg
Outline: as §3

[8] = tested on: WCR; experiment: as above; format: in vivo, Diabrotica virgifera virgifera; conditions: 24 hour
Outline: as §3

[9] = tested on: western corn rootworm (WCR) adults; conditions: in vivo; cited from earlier work
[10] = August 4, second year, each compound 20 mg per trap
[11] = August 7, second year, each compound 20 mg per trap
[12] = August first year, South Farms, 24 h, single compounds 100 mg per trap, mixture 20 mg of each component
[13] = August first year, single compounds 100 mg per trap

| melting point [°C] | SMILES | relative percent activity (WCR) as compared with the highest mean value for the test date [4, 10] [%] | Mean number of WCR per trap (±standard deviation) [4, 10] [per trap] | relative percent activity (WCR) as compared with the highest mean value for the test date [4, 11] [%] | Mean number of WCR per trap (±standard deviation) [4, 11] [per trap] | Mean number of WCR per trap (±standard deviation) [4, 12] [per trap] | relative percent activity of the mean WCR trap catch as compared with the highest mean value in the column [4, 13] [%] | relative percent activity (SCR) as compared with the highest mean value for the test date [5, 10] [%] | Mean number of SCR per trap (±standard deviation) [5, 10] [per trap] | relative percent activity (SCR) as compared with the highest mean value for the test date [5, 11] [%] | Mean number of SCR per trap (±standard deviation) [5, 11] | Mean number of SCR per trap (±standard deviation) [5, 12] [per trap] | relative percent activity of the mean SCR trap catch as compared with the highest mean value in the column [5, 13] [%] | also measured |
| --- | --- | --- | --- | --- | --- | --- | --- | --- | --- | --- | --- | --- | --- | --- |
| 87 to 89 | COC(=O)C=Cc1ccc(OC)cc1 [XIV, 4-methoxycinnamic acid methyl ester] |  |  |  |  |  |  |  |  |  |  |  |  | Mean number of SCR adults per sticky trap (±standard deviation) after 24 hours [1]: 0.7 ± 1.5^a per sticky trap; Mean number of WCR adults per sticky trap (±standard deviation) after 24 hours ([2]; September 11, n = 4): 1.0 ± 1.1^a per sticky trap |
| 34 to 35 | CCOc1ccc(OC)cc1 [VI, 4-methoxyphenyl ethyl ether] |  |  |  |  |  |  |  |  |  |  |  |  | Relative percent activity as compared with the highest mean in the column (WCR) ([2]; August 29): 8%; Mean number of WCR per sticky trap (±standard deviation) after 24 hours ([2]; August 29, n = 4): 12.0 ± 1.8 per sticky trap; Relative percent activity as compared with the highest mean in the column (WCR) ([2]; July 30): 39%; Mean number of WCR per sticky trap (±standard deviation) after 24 hours ([2]; July 30, n = 4): 32.0 ± 8.4 per sticky trap |
|  | COc1ccccc1OC [Veratrole, 1,2-dimethoxybenzene] | 39 | 20.0 ± 5.7 | 59 | 18.5 ± 7.2 | 1.5 ± 1.0 | 22 | 15 | 5.8 ± 3.4 | 20 | 8.8 ± 2.l | 6.8 ± 3.6 | 33 | mean (±SD) dead SCR beetles for 10 dishes [3]: 63.1±39.9 |
|  | c1ccc2[nH]ccc2c1 [Indole] | 100 | 51.3 ± 24.4 | 87 | 27.5 ± 11.8 | 3.3 ± 2.1 | 49 | 4 | 1.5 ± 1.0 | 6 | 2.8 ± 1.3 per trap | 2.3 ± 2.1 | 11 | Attractant Rating SCR (by limit of response) [6]: 0 (200); Attractant Rating NCR (by limit of response) [7]: 0 (200); Attractant Rating WCR (by limit of response) ([8]; four replicate traps, 0.01 mg to 200 mg): +4 (1-3); LR for WCR ([8]; sticky traps): 1 mg; LR values for WCR attraction (literature) [9]: 1 mg |

Reference: US6613317B1, “Volatile attractants for diabrotica species” (priority 1988, dated 2003)
